Data reported in the supplement of paper PMC10307832.

Tests used:
Test in all cases: relative viability (nuclei count vs DMSO), 5 days (fraction); higher = more cells survive
[1] = compound: CC1=C(CC(=O)O)c2cc(F)ccc2/C1=C\c1ccc([S+](C)[O-])cc1 [Sulindac] + CCNC(=O)c1noc(-c2cc(C(C)C)c(O)cc2O)c1-c1ccc(CN2CCOCC2)cc1 [Luminespib] (partner 0.01 µM)
In short: (§1)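 The day after seeding in 1536-well plates, lung cancer cell lines were treated by pin tool with a single drug, or with a fixed anchor-drug dose together with five library-drug doses (not always all listed) in √10 steps. After 5 days, a combined fix-and-stain solution (final 0.05% Triton X-100, 1% formaldehyde, 1 ug/ml Hoechst) was added. Nuclei counted on 4× images gave relative viability as treated counts over vehicle counts, reported as the median of duplicate plates.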

[2] = compound: CC1=C(CC(=O)O)c2cc(F)ccc2/C1=C\c1ccc([S+](C)[O-])cc1 [Sulindac] + Nc1nc2[nH]cc(CCc3ccc(C(=O)N[C@@H](CCC(=O)O)C(=O)O)cc3)c2c(=O)[nH]1 [Pemetrexed] (partner 0.2 µM)
In short: as §1

[3] = compound: CN[C@@H]1C[C@H]2O[C@@](C)([C@@H]1OC)n1c3ccccc3c3c4c(c5c6ccccc6n2c5c31)C(=O)NC4 [Staurosporine] + COc1cc2c(Oc3ccc(NC(=O)C4(C(=O)Nc5ccc(F)cc5)CC4)cc3F)ccnc2cc1OCCCN1CCOCC1 [Foretinib] (partner 0.25 µM)
In short: as §1

[4] = compound: O=c1[nH]cc(F)c(=O)[nH]1 [5-Fluorouracil] + COc1cccc2cc(-c3nc([C@H]4CC[C@H](C(=O)O)CC4)n4ncnc(N)c34)[nH]c12 [OSI-027] (partner 0.5 µM)
In short: as §1

Cell Line | relative viability ([1]; first compound 0.08 µM) | relative viability ([1]; first compound 0.253 µM) | relative viability ([1]; first compound 0.8 µM) | relative viability ([1]; first compound 2.53 µM) | relative viability ([1]; first compound 8 µM) | relative viability ([2]; first compound 0.08 µM) | relative viability ([2]; first compound 0.253 µM) | relative viability ([2]; first compound 2.53 µM) | relative viability ([2]; first compound 8 µM) | relative viability ([3]; first compound 0.005 µM) | relative viability ([3]; first compound 0.01581 µM) | relative viability ([3]; first compound 0.05 µM) | relative viability ([3]; first compound 0.1581 µM) | relative viability ([3]; first compound 0.5 µM) | relative viability ([4]; first compound 0.02 µM) | relative viability ([4]; first compound 0.2 µM) | relative viability ([4]; first compound 0.6325 µM) | relative viability ([4]; first compound 2 µM) | relative viability ([2]; first compound 0.8 µM)
NCI-H596 | 1.08 | 0.99 | 0.915 | 1 | 0.993 | 0.441 | 0.433 | 0.445 | 0.544 | 1.32 | 0.839 | 0.587 | 0.297 | 0.305 | 0.832 | 0.82 | 0.623 | 0.337 | –
LCLC-97TM1 | 0.978 | 0.847 | 0.673 | 0.644 | 0.876 | 0.205 | 0.178 | 0.177 | 0.198 | 0.988 | 0.558 | 0.454 | 0.382 | 0.461 | 0.392 | 0.531 | 0.557 | 0.379 | 0.147
COR-L23 | 0.903 | 0.555 | 0.508 | 0.739 | 0.952 | 0.177 | 0.202 | 0.192 | 0.204 | 0.513 | 0.459 | 0.376 | 0.119 | 0.0927 | 0.794 | 0.539 | 0.323 | 0.245 | 0.206
NCI-H1355 | 0.612 | 0.668 | – | 0.601 | 0.702 | 1.02 | 1.05 | 1.02 | 1.13 | 0.963 | 0.415 | 0.468 | 0.221 | 0.221 | 0.465 | 0.4 | 0.274 | 0.268 | 0.965
EPLC-272H | 0.211 | 0.167 | – | 0.262 | 0.255 | 0.274 | 0.326 | 0.278 | 0.347 | 0.608 | 0.136 | 0.174 | 0.0912 | 0.121 | 0.272 | 0.257 | 0.263 | 0.212 | 0.465
ChaGo-K-1 | 0.526 | 0.584 | 0.637 | 0.587 | 0.405 | 0.269 | 0.247 | 0.262 | 0.275 | 0.881 | 0.528 | 0.676 | 0.223 | 0.188 | 0.608 | 0.536 | 0.401 | 0.425 | 0.302
NCI-H1651 | 1.08 | 0.897 | – | 0.8 | 0.948 | 0.766 | 0.626 | 0.569 | 0.613 | 0.74 | 0.615 | 0.346 | 0.259 | 0.0644 | 0.832 | 0.628 | 0.507 | 0.475 | 0.581
SW 1573 | 0.197 | 0.25 | 0.242 | 0.293 | 0.284 | 0.91 | 0.887 | 0.754 | 0.9 | 0.852 | 0.943 | 0.203 | 0.176 | 0.104 | 0.548 | 0.73 | 0.633 | 0.327 | 0.737
NCI-H460 | 0.0451 | 0.0347 | 0.0378 | 0.0255 | 0.0267 | 0.0577 | 0.0612 | 0.0599 | 0.0635 | 0.972 | 0.85 | 0.755 | 0.161 | 0.013 | 0.803 | 0.35 | 0.0996 | 0.0548 | 0.0559
SK-LU-1 | 0.193 | 0.204 | 0.175 | 0.202 | 0.215 | 1.13 | 1.05 | 1.02 | 1.02 | 0.267 | 0.192 | – | 0.119 | 0.132 | 0.374 | 0.309 | 0.342 | 0.321 | 0.821
LOU-NH91 | 0.322 | 0.322 | 0.314 | 0.328 | 0.401 | 0.305 | 0.358 | 0.423 | 0.374 | 0.923 | 0.816 | 0.627 | 0.512 | 0.238 | 0.694 | 0.788 | 0.692 | 0.432 | 0.413
RERF-LC-KJ | 1.06 | 1.47 | 1.18 | 1.23 | 1.64 | 0.458 | 0.486 | 0.447 | 0.519 | 0.876 | 0.824 | 0.702 | 0.491 | 0.191 | 0.609 | 0.553 | 0.543 | 0.471 | 0.506
NCI-H2126 | 0.963 | 0.804 | 0.888 | 0.991 | 0.955 | 0.774 | 0.68 | 0.692 | 0.699 | 1.35 | 0.69 | 0.634 | 0.613 | 0.297 | 0.589 | 0.39 | 0.302 | 0.365 | 0.658
SW 900 | – | 0.176 | – | 0.156 | 0.173 | 0.532 | 0.492 | – | 0.453 | 0.388 | 0.331 | 0.406 | 0.22 | 0.144 | 0.505 | 0.501 | 0.44 | 0.423 | –
LU99A | 0.164 | 0.315 | 0.196 | 0.243 | 0.263 | 0.181 | 0.159 | 0.193 | 0.179 | 0.739 | 0.505 | 0.342 | 0.264 | 0.219 | 0.262 | 0.272 | 0.311 | 0.223 | 0.214
BEN | 0.23 | 0.373 | 0.597 | 0.472 | 0.326 | 0.816 | 0.757 | 0.706 | 0.998 | 0.688 | 0.418 | 0.248 | 0.221 | 0.187 | 0.303 | 0.312 | 0.315 | 0.326 | 0.698
NCI-H1666 | 1.04 | 1.03 | 0.955 | 1 | 1.1 | 0.924 | 0.852 | 0.858 | 0.878 | 0.668 | 0.513 | 0.545 | 0.391 | 0.359 | 0.869 | 0.551 | 0.488 | 0.508 | 0.818
